Where two headings read alike, the source gives them in different places.

Data on three compounds can be found in US5808139A (Ligand Pharmaceuticals Incorporated, priority 1994, dated 1998).

The subject of assay [1] is human progesterone receptor altered at the Tau-1 location. Put plainly: Co-transfection assay in CV-1 cells, progesterone receptor altered at Tau-1, antagonist activity. It is filed as cell-based. The method, boiled down:
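CV-1 cells co-transfected with RSV-LTR-driven human PR (altered at Tau-1) and a hormone-responsive luciferase reporter; antagonism measured against a fixed agonist concentration. Luciferase in cell extracts read, triplicate points, potency from concentration-response; […].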

The target of assay [2] is T1, human progesterone receptor (Homo sapiens, UniProt P06401).
T1 sequence (P06401 1-933): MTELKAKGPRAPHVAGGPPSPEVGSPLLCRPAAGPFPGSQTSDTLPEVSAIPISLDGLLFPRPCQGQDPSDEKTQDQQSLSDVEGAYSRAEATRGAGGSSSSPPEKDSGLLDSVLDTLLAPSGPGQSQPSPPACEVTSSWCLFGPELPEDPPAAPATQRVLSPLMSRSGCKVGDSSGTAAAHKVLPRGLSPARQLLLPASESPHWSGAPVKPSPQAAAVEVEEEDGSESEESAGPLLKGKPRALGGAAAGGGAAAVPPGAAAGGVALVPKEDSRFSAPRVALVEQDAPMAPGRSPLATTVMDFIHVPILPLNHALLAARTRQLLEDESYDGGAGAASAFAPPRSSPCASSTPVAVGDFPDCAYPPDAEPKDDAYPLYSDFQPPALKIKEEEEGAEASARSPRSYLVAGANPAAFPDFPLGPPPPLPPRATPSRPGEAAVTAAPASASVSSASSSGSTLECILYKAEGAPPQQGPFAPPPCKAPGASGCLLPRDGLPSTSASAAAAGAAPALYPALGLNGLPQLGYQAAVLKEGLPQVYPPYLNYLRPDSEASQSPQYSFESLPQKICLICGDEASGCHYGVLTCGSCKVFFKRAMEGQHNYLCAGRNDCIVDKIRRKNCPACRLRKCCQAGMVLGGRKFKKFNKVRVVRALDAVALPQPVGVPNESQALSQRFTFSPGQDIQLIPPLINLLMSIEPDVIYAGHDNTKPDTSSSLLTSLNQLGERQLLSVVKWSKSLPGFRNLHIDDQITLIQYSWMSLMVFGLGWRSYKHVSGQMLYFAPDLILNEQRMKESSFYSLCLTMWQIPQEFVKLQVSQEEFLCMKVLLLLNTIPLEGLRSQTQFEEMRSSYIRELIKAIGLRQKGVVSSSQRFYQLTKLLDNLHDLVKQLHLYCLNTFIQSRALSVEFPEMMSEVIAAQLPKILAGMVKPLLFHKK
Put plainly: Displacement of 3H-R5020 from progesterone receptor. Particulars: FIG. 7c.

Assay [3] deals with T1, human progesterone receptor. The experiment in a line: Co-transfection (cis-trans) assay in CV-1 cells, agonist and antagonist mode. Format: cell-based. More on the design: expressed in transfected cells; host or cells: CV-1 cells (calcium phosphate transfection), whole cell extract. Particulars: antagonist mode with 10^-8 M progesterone. The source says:
This assay is described in further detail in U.S. Pat. Nos. 4,981,784 and 5,071,773, which are incorporated herein by reference. The co-transfection assay provides a method for identifying functional ligands (either agonists which mimic, or antagonists which inhibit, the effect of hormones) for ligand-responsive receptor proteins.
The co-transfection assay provides a mechanism to evaluate ability of a compound to function as an agonist or antagonist of the activity modulated by an intracellular receptor. The co-transfection assay mimics an in vivo system in the laboratory. In the co-transfection assay, a cloned gene for an intracellular receptor is introduced by transfection (a procedure to induce cells to take up foreign genes) into a background cell substantially devoid of endogenous intracellular receptors. This introduced gene directs the recipient cells to make the intracellular receptor protein. A second gene is also introduced (co-transfected) into the same cells in conjunction with the intracellular receptor gene. This second gene functions as a reporter for the transcription-modulating activity of the target intracellular receptor. The reporter acts as a surrogate for the products normally expressed by a gene under control of the target receptor and its natural hormone.
A preferred reporter gene is one which expresses the firefly enzyme luciferase. The co-transfection assay can detect small molecule agonists or antagonists of target intracellular receptors. Exposing the cells to an agonist ligand increases reporter activity in the transfected cells that can be conveniently measured, reflecting ligand-dependent, intracellular receptor-mediated increases in reporter transcription. To detect antagonists, the co-transfection assay is carried out in the presence of a constant concentration of an agonist known to induce a defined reporter signal. Increasing concentrations of a test antagonist will decrease the reporter signal. The co-transfection assay is therefore useful to detect both agonists and antagonists of specific intracellular receptors. It determines not only whether a compound interacts with a particular intracellular receptor, but also whether this interaction mimics (agonizes) or blocks (antagonizes) the effects of the natural regulatory molecules on target gene expression.
Co-transfected cells are exposed to a medium to which is added the potential ligand that is being evaluated. If the candidate ligand diffuses into the cell and binds to the receptor and the resulting complex functions as an agonist, it binds to the co-transfected reporter gene and initiates transcription. When that gene is one that expresses, for example, luciferase, luciferase is produced which catalyzes a light-emitting reaction with its substrate luciferin. Thus, after cell lysis and the introduction of luciferin, the amount of light produced relative to the concentration of candidate ligand used in the assay provides a measure of the potency and efficacy of the compound tested. Antagonist activity is evaluated by adding the candidate ligand and a known agonist to the co-transfected cells.
The receptor cDNA was introduced in a mammalian expression vector under the control of the Rous Sarcoma virus LTR. […] A reporter vector was also transfected, containing a firefly luciferase gene under the control of the hormone-responsive promoter. […] The level of luciferase activity was then measured in cell extracts. Light emission is directly proportional to the effectiveness of the hormone-receptor complex in activating gene expression.
A total of three replicates per concentration point were tested for each compound, and the EC50 was calculated for each positive response. Both agonist and antagonist activity for each test compound was determined in parallel.

Assay [4] has the same target. Put plainly: Progesterone receptor binding (displacement of 3H-progesterone, whole cell extract of transfected CV-1 cells). More on the design: expressed in transfected cells; host or cells: CV-1 cells (calcium phosphate transfection), whole cell extract. The settings on record: for Displacement of 3H-progesterone from its ligand binding site: 5 nM tritiated progesterone, 0-2.5×10^-5 M compound, 4° C., 24 hours.

As for `CC#C[C@]1(O)CC[C@H]2[C@@H]3CCC4=CC(=O)CCC4=C3[C@@H](c3ccc(N(C)C)cc3)C[C@@]21C` [RU-486, reference compound], the IC50 in assay [1] (read-out: Potency (IC50), CV-1 cells, concentration required to reduce the maximal response by 50%) stood at 0.1 nM. Also, the “Competition with 3H-R5020” value in assay [2] is “competitive antagonist of R5020”.

Regarding `C=C1CC[C@@H](Br)C(C)(C)[C@@H]1Cc1cc(OC)c(Br)cc1OC(C)=O` [SO-52], the “Progesterone receptor agonist/antagonist activity” value in assay [3] is on record as “progesterone receptor antagonist activity”. Moreover, the “Displacement of 3H-progesterone from its ligand binding site” value in assay [4] is listed as “displaced ^3 H-progesterone from its ligand binding site in a concentration-dependent manner”.

With `C=C1CC[C@@H](Br)C(C)(C)[C@@H]1Cc1cc(OC)c(Br)cc1O` [SO-53, (3R)-cyclocymopol monomethyl ether], the “Efficacy (% maximal response relative to RU-486), CV-1 cells” value in assay [1] (antagonist activity, relative to RU-486) is 85%. The IC50 in assay [1] (concentration required to reduce the maximal response by 50%, read-out: Potency (IC50), CV-1 cells) is 965 nM. Further, the “Competition with 3H-R5020” value in assay [2] is “did not compete for this binding site”. For the same compound, the “Progesterone receptor agonist/antagonist activity” value in assay [3], in assay [3] (listed as 3R diastereomer of cyclocymopol monomethyl ether) and in assay [3] (listed as SO-9) was “progesterone receptor antagonist activity” each time. Further, the Kd in assay [4] came to 450 nM. The “Displacement of 3H-progesterone from its ligand binding site” value in assay [4] is on record as “displaced ^3 H-progesterone from its ligand binding site in a concentration-dependent manner”. Besides, the “Apparent Bmax of 3H-progesterone” value in assay [4] (in the presence of compound, FIG. 8) is listed as “significantly increased the apparent Bmax”.
